The record followed here is PubChem BioAssay AID1259408 (Genetic Toxicology Data Bank (GENE-TOX), 2018).

Activity calls are given as the source filed them. How the calls were made is not given here.

This data set has as its system GENE-TOX genotoxicity assays, various organisms and cells. Put plainly: GENE-TOX mutagenicity studies. The following applies: for call: Assay Type: In vivo carcinogenicity studies.
Where [1] appears, read: Species/Cell Type: Human, Assay Type: Sister-chromatid exchange (SCE) in vitro, Assay Code: SC1+D, Dose Response: With dose response, Evaluation Type: Evaluation B (Post-1980).
The mark [2] stands for this setting: Species/Cell Type: Salmonella typhimurium (one or more of the five standard strains: TA98, TA100, TA1535, TA1537, and TA1538), Assay Type: Histidine reverse gene mutation, Ames assay, Assay Code: SALT, Evaluation Type: Evaluation A (Pre-1980).
[3] abbreviates: Species/Cell Type: Bacillus subtilis (H17 vs M45), Assay Type: Rec-assay, spot test, DNA effects (bacterial DNA repair), Assay Code: REWT, Evaluation Type: Evaluation A (Pre-1980).
The mark [4] stands for this setting: Species/Cell Type: Saccharomyces cerevisiae, Assay Type: Mitotic recombination or gene conversion, Assay Code: YEH-, Evaluation Type: Evaluation A (Pre-1980).
Where [5] appears, read: Species/Cell Type: Escherichia coli polA (W3119 vs P3478), Assay Type: Rec-assay, DNA effects (bacterial DNA repair), Assay Code: RE1+, Evaluation Type: Evaluation A (Pre-1980).
Setting [6] is: Species/Cell Type: Nonhuman, Assay Type: Sister-chromatid exchange (SCE) in vitro, Assay Code: SC2+, Evaluation Type: Evaluation B (Post-1980).
Setting [7] is: Species/Cell Type: Nonhuman, Assay Code: CCG+, Evaluation Type: Evaluation A (Pre-1980).
[8] abbreviates: Species/Cell Type: Fischer rat embryo (RLV/1706) cells, Assay Type: Cell transformation, viral enhanced, Assay Code: CTR+, Evaluation Type: Evaluation A (Pre-1980).
The mark [9] stands for this setting: Species/Cell Type: Chinese hamster lung (V79) cells, Assay Type: Forward gene mutation at the HPRT or ouabain locus, Assay Code: V79+, Evaluation Type: Evaluation A (Pre-1980).

On to `CC(=O)O[C@]1(C(C)=O)CC[C@H]2[C@@H]3C[C@H](C)C4=CC(=O)CC[C@]4(C)[C@H]3CC[C@@]21C`, for which the mutagenic call was “active; positive” under setting [1]; “active; positive” (Species/Cell Type: Human, Sex: Male, Assay Type: Sperm morphology, Assay Code: SPH+, Evaluation Type: Evaluation A (Pre-1980)); “active; positive” (Species/Cell Type: Nonhuman, Assay Type: Sister-chromatid exchange (SCE) in vivo, Assay Code: SC3+, Evaluation Type: Evaluation B (Post-1980)).
On to `COc1ccccc1[N+](=O)[O-]`, for which the mutagenic call under setting [2] is given as “no conclusion”.
In the case of `COC1=CC(=O)C[C@@H](C)[C@]12Oc1c(Cl)c(OC)cc(OC)c1C2=O`, the mutagenic call by setting is: (Species/Cell Type: Allium cepa, Assay Type: Chromosome aberrations, Assay Code: ALC+, Evaluation Type: Evaluation A (Pre-1980)) “active; positive”; (Species/Cell Type: Aspergillus nidulans, Assay Type: Aneuploidy, chromosome aberrations, Assay Code: ASN+, Evaluation Type: Evaluation A (Pre-1980)) “active; positive”; (Species/Cell Type: Aspergillus nidulans, Assay Type: Mitotic recombination, Assay Code: ASGT, Evaluation Type: Evaluation A (Pre-1980)) “no conclusion”; under setting [3], “no conclusion”; (Species/Cell Type: Escherichia coli polA (W3119 vs P3478), Assay Type: Rec-assay, DNA effects (bacterial DNA repair), Assay Code: RE1T, Evaluation Type: Evaluation A (Pre-1980)) “no conclusion”; (Species/Cell Type: Mammalian polychromatic erythrocytes, Assay Type: Micronucleus test, chromosome aberrations, Assay Code: MNTT, Evaluation Type: Evaluation A (Pre-1980)) “no conclusion”. Besides, the mutagenic call by setting is: (Species/Cell Type: Mouse, Sex: Male, Assay Type: Sperm morphology, Assay Code: SPI+, Evaluation Type: Evaluation A (Pre-1980)) “active; positive”; (Species/Cell Type: Nonhuman, Assay Type: Sister-chromatid exchange (SCE) in vivo, Assay Code: SC3+D, Dose Response: With dose response, Evaluation Type: Evaluation B (Post-1980)) “active; positive”; under setting [4], “inactive; negative”; under setting [2], “no conclusion”. The call (Species/Cell Type: Nonhuman, Assay Code: CCG+L, Evaluation Type: Evaluation A (Pre-1980)) is “active; positive”.
On to `O=CCBr`, for which the mutagenic call under setting [5] was “active; positive”.
In the case of `C/C=C1/C[C@@H](C)[C@@](C)(O)C(=O)OC/C2=C/CN(C)CC[C@@H](OC1=O)C2=O`, the mutagenic call (Species/Cell Type: Nonhuman, Assay Type: Sister-chromatid exchange (SCE) in vitro, Assay Code: SC2+D, Dose Response: With dose response, Evaluation Type: Evaluation B (Post-1980)) is “active; positive”.
`[Cl][Cr]([Cl])[Cl]`: the mutagenic call is “inactive; negative” (Species/Cell Type: Bacillus subtilis (H17 vs M45), Assay Type: Rec-assay, spot test, DNA effects (bacterial DNA repair), Assay Code: REW-, Evaluation Type: Evaluation A (Pre-1980)); “inactive; negative” (Species/Cell Type: Human lymphocytes, Assay Type: Sister-chromatid exchange (SCE) in vitro, Assay Code: SCL-, Evaluation Type: Evaluation B (Post-1980)); “inactive; negative” (Species/Cell Type: Human, Assay Type: Sister-chromatid exchange (SCE) in vitro, Assay Code: SC1-, Evaluation Type: Evaluation B (Post-1980)); “inactive; negative” (Species/Cell Type: Mammalian oocytes or early embryo, Assay Type: Chromosome aberrations in vivo, Assay Code: CYO-, Evaluation Type: Evaluation A (Pre-1980)); “active; positive” under setting [6]; “no conclusion” (Species/Cell Type: Nonhuman, Assay Type: Sister-chromatid exchange (SCE) in vitro, Assay Code: SC2T, Evaluation Type: Evaluation B (Post-1980)). In addition, the mutagenic call under setting [2] was “no conclusion”.
`OCc1c2ccccc2c2ccc3cccc4ccc1c2c43`: the mutagenic call is “active; positive” (Species/Cell Type: Chinese hamster lung (V79) cells, Assay Type: Forward gene mutation at the HPRT or ouabain locus, Assay Code: V79+*, Activation: With metabolic activation, Evaluation Type: Evaluation A (Pre-1980)); “active; positive” (Species/Cell Type: Drosophila melanogaster, Assay Type: Sex-linked recessive lethal gene mutation, Assay Code: SRL+, Evaluation Type: Evaluation A (Pre-1980)); “active; positive” (Species/Cell Type: Salmonella typhimurium (one or more of the five standard strains: TA98, TA100, TA1535, TA1537, and TA1538), Assay Type: Histidine reverse gene mutation, Ames assay, Assay Code: SAL+*, Activation: With metabolic activation, Evaluation Type: Evaluation A (Pre-1980)). For the same compound, under setting [7], the call is “active; positive”.
For `Clc1nc(Cl)nc(Nc2ccccc2Cl)n1`, under setting [8], the mutagenic call was “active; positive”. For the same compound, the call (Species/Cell Type: Nonhuman, Assay Code: CCG-, Evaluation Type: Evaluation A (Pre-1980)) was “inactive; negative”.
Turning to `C[As](SC#N)SC#N`, the mutagenic call (Species/Cell Type: Bacillus subtilis (H17 vs M45), Assay Type: Rec-assay, spot test, DNA effects (bacterial DNA repair), Assay Code: REW+, Evaluation Type: Evaluation A (Pre-1980)) is “active; positive”.
In the case of `O=C1c2cccc(O)c2C(=O)c2c(NCCNCCO)ccc(NCCNCCO)c21`, the mutagenic call under setting [6] was “active; positive”.
Regarding `CN(N=O)C(=O)N[C@@H]1O[C@H](CO)[C@H](O)[C@H](O)[C@H]1O`, the mutagenic call under setting [9] was “active; positive”.
For the compound `CCCC(C)(C)C(=O)Nc1ccc(Cl)cc1`, the mutagenic call (Species/Cell Type: Saccharomyces cerevisiae, Assay Type: Mitotic recombination or gene conversion, Assay Code: YEC-, Evaluation Type: Evaluation A (Pre-1980)) was “inactive; negative”.
As to `CC1=CC(=C(c2ccc(N)cc2)c2ccc(N)cc2)C=CC1=N`, the mutagenic call under setting [3] is reported as “no conclusion”.
Turning to `CCn1c2ccccc2c2cc(N)ccc21`, the call under setting [7] was “active; positive”.
Same read-out and setting: under `Nc1ccc(Sc2ccc(N)cc2)cc1` stands “active; positive”.
Regarding `COP(=S)(OC)Oc1cc(Cl)c(Cl)cc1Cl`, under setting [1], the mutagenic call is “active; positive”.
`Oc1cc2cc3c(ccc4ccccc43)cc2c2ccccc12`: the mutagenic call is “active; positive” under setting [9]; “inactive; negative” (Species/Cell Type: Mouse prostate cells, Assay Type: Cell transformation, Assay Code: CTM-, Evaluation Type: Evaluation A (Pre-1980)); “no conclusion” (Species/Cell Type: Syrian hamster embryo (SHE) cells, Assay Type: Cell transformation, clonal assay, Assay Code: CTCT, Evaluation Type: Evaluation A (Pre-1980)).
Consider `COc1cc(S(=O)(=O)O)c(C)cc1N=Nc1c(O)ccc2cc(S(=O)(=O)O)ccc12`, for which the mutagenic call is, setting by setting: (Species/Cell Type: Drosophila melanogaster, Assay Type: Sex-linked recessive lethal gene mutation, Assay Code: SRL-, Evaluation Type: Evaluation A (Pre-1980)) “inactive; negative”; (Species/Cell Type: Salmonella typhimurium (one or more of the five standard strains: TA98, TA100, TA1535, TA1537, and TA1538), Assay Type: Histidine reverse gene mutation, Ames assay, Assay Code: SAL-, Evaluation Type: Evaluation A (Pre-1980)) “inactive; negative”.
In the case of `CCn1c2cc(=N[N+]#N)ccc-2c2ccc(N=[N+]=[N-])cc2c1-c1ccccc1`, the mutagenic call (Species/Cell Type: Saccharomyces cerevisiae, Assay Type: Mitotic recombination or gene conversion, Assay Code: YECT, Evaluation Type: Evaluation A (Pre-1980)) was “no conclusion”; the mutagenic call under setting [4] is “inactive; negative”; the mutagenic call (Species/Cell Type: Saccharomyces cerevisiae, Assay Type: Reverse gene mutation, Assay Code: YERT, Evaluation Type: Evaluation A (Pre-1980)) is listed as “no conclusion”.
In the case of `CCc1cc(C(N)=S)ccn1`, the mutagenic call (Species/Cell Type: Human, Assay Type: Sister-chromatid exchange (SCE) in vitro, Assay Code: SC1T, Evaluation Type: Evaluation B (Post-1980)) is given as “no conclusion”.
`CCC1CO1` (stereo unspecified): the mutagenic call reads like this: (Species/Cell Type: Escherichia coli polA (W3110 vs P3478), Assay Type: Rec-assay, DNA effects (bacterial DNA repair), Assay Code: RE2+, Evaluation Type: Evaluation A (Pre-1980)) “active; positive”; under setting [5], “active; positive”; under setting [8], “active; positive”; (Species/Cell Type: Mouse (BALB/c-3T3) cells, Assay Type: Cell transformation, Assay Code: CTB-, Evaluation Type: Evaluation A (Pre-1980)) “inactive; negative”; (Species/Cell Type: Neurospora crassa, Assay Type: Reverse gene mutation, Assay Code: NER+, Evaluation Type: Evaluation A (Pre-1980)) “active; positive”; (Species/Cell Type: Saccharomyces cerevisiae, Assay Type: Mitotic recombination or gene conversion, Assay Code: YEH+, Evaluation Type: Evaluation A (Pre-1980)) “active; positive”. Further, the mutagenic call is “active; positive” (Species/Cell Type: Salmonella typhimurium (one or more of the five standard strains: TA98, TA100, TA1535, TA1537, and TA1538), Assay Type: Histidine reverse gene mutation, Ames assay, Assay Code: SAL+, Evaluation Type: Evaluation A (Pre-1980)); “active; positive” (Species/Cell Type: Syrian hamster embryo (SHE) cells, Assay Type: Cell transformation, clonal assay, Assay Code: CTC+, Evaluation Type: Evaluation A (Pre-1980)). The call (Species/Cell Type: Nonhuman, Assay Code: CCGT, Evaluation Type: Evaluation A (Pre-1980)) is on record as “no conclusion”.
